Experimental data from patent publication EP4335840A1, “NEW CONTRAST AGENTS FOR USE IN DIAGNOSTIC IMAGING” (priority 2022, dated 2024).

Key:
[1] = Complex stability (transmetallation with Zn2+, proton relaxometry); type: physicochemical; details: 72 hours, 2.5 mM Zn2+, 26 mM phosphate buffer, 37°C, pH 7.4; 1.41 T
Description: The used method is described elsewhere (Laurent S et al., Stability of MRI paramagnetic contrast media: a proton relaxometric protocol for transmetallation assessment. Invest Radiol. 2001 Feb;36(2):115-22). In brief: A solution containing 2.5 mmol/L of test compound and 2.5 mmol/L ZnCl2 in 26 mM phosphate buffer (KH2PO4 Merck; 1.09439.1000, #HC748513, pH 7,00), was incubated at 37°C over a period of at least 3 days. If test compounds are instable under these conditions, transmetallation during this test would lead to the formation of the Zn^2+ complex of the test item, while Gd^3+ is released and precipitated as highly insoluble GdPO4.
After 3d of incubation T1 relaxation time was observed. […] Table 2: Transmetallation stability [%] of paramagnetic contrast agents over 72 hours (2.5 mM Zn2+, 26 mM phosphate buffer, 37°C, pH 7.4).

[2] = No-observed-adverse-effect level (NOAEL), intravenous bolus; details: mice, intravenous bolus via tail vein, dose levels up to 2.5 mmol Gd/kg bw
OATP1B1 = molecular target: T1, OATP1B1 (Homo sapiens, UniProt Q9Y6L6); assay: Uptake into stable transfected OATP1B1 HEK 293 cells; type: cell-based; details: OATP1B1-HEK 293 cell uptake with Rifampicine
T1 sequence (Q9Y6L6 1-691): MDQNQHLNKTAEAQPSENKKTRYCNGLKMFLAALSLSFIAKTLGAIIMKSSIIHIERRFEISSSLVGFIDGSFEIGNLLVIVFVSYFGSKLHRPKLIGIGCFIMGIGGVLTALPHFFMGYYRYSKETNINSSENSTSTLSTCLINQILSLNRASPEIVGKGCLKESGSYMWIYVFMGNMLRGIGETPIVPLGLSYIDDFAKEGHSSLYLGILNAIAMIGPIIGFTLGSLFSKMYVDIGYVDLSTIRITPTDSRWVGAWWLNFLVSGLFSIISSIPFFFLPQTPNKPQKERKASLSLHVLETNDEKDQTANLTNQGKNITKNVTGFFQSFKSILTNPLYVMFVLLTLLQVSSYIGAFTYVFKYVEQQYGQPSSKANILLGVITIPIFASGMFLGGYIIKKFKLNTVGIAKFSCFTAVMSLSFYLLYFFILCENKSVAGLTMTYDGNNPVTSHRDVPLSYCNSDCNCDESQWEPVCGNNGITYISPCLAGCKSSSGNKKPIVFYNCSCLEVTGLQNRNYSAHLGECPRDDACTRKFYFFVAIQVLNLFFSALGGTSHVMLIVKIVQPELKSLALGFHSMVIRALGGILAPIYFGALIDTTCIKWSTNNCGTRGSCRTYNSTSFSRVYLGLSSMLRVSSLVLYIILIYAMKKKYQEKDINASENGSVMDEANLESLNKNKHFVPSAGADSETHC

OATP1B3 = molecular target: T2, OATP1B3 (Homo sapiens, UniProt Q9NPD5); assay: Uptake into stable transfected OATP1B3 HEK 293 cells; type: cell-based; details: OATP1B3-HEK 293 cell uptake with Rifampicine
T2 sequence (Q9NPD5 1-702): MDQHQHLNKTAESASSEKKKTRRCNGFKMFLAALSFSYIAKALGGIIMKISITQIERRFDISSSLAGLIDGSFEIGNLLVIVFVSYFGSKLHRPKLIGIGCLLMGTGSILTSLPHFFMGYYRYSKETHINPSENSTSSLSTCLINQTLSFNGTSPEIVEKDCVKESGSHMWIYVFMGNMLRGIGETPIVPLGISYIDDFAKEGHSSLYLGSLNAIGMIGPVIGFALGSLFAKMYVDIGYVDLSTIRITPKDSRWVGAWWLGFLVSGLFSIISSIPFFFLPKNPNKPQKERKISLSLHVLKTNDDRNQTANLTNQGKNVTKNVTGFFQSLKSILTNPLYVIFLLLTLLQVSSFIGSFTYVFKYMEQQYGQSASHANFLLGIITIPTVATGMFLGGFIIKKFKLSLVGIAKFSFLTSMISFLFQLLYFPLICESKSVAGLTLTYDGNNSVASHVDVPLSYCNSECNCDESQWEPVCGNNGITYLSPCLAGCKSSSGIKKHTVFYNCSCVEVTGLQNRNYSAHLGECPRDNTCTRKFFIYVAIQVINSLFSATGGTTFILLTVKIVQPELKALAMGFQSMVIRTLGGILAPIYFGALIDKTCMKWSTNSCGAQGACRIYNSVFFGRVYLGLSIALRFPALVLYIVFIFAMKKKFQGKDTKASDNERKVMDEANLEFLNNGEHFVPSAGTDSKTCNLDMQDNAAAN

[3] = Water solubility in aqueous buffer; type: physicochemical; details: aqueous buffer 10 mM Tris-HCl, pH 7.4, 20°C; Gd by ICP-MS
Description: The exploratory water solubility of the compounds is determined at room temperature (20°C) in 0.5 mL buffer solution (10 mM Tris-HCI, pH 7.4) in the microcentrifuge tubes (Eppendorf, 2.0 mL safe-lock caps). The solid compounds were added stepwise to the buffer solution. More substance is added once all the suspended material is dissolved until an equilibrium between undissolved and dissolved substance is reached. The suspension was mixed using a shaker (Heidolph Reax 2000) and treated 5 min in an ultrasound bath (Bandelin, Sonorex Super RK255H). The Gadolinium concentration of the test substance in the clear solution is measured by ICP-MS. Table 1: Solubilities of compounds in aqueous buffer at 20°C (pH 7.4).

[4] = Relaxivity measurements at 1.41 T in water and human plasma; type: physicochemical; details: 37°C, normalized to Gd
Description: Relaxivity measurements at 1.41 T were performed using a MiniSpec mq60 spectrometer (Bruker Analytik, Karlsruhe, Germany) operating at a resonance frequency of 60 MHz and a temperature of 37°C. The T1 relaxation times were determined using the standard inversion recovery (IR) method with a fixed relaxation delay of at least 5 × T1. The variable inversion time (TI) was calculated automatically by the standard software of the MiniSpec mq60 (8 steps). The T2 measurements were performed by using a Carr-Purcell-Meiboom-Gill (CPMG) pulse sequence, applying a relaxation delay of at least 5 × T1.
Each relaxivity measurement was performed using three different Gd concentrations (3 concentrations between 0.05 and 2 mM). The T1 and T2 relaxation times of the example compounds 1 to 10 were measured in different media for example in water and human plasma. Human plasma preparation: For each experiment fresh blood was taken from a volunteer using 10 mL citrate-tubes (Sarstedt S-Monovette 02.1067.001, 10 mL, Citrate). The 10 mL citrate-tubes were carefully inverted 10 times to mix blood and anticoagulant and centrifuged for 15min at 1811 g at RT (Eppendorf, Centrifuge 5810R).
The relaxivities ri (where i=1, 2) were calculated based on the measured relaxation rates Ri in water and plasma: ri = (Ri−Ri(0))/CGd [formula] where Ri(0) represent the relaxation rate of the respective solvent and CGd the concentration of the compound normalized to the Gadolinium. The Gadolinium concentrations of the investigated solutions were verified by Inductively Coupled Plasma Mass Spectrometry (ICP-MS Agilent 7500a, Waldbronn, Germany). Table 3: Relaxivities of investigated compounds in water and human plasma at 1.41 T and relaxivities of Reference compounds 1-3 (RC1-RC3) at 1.5 T in water and bovine plasma. All values are measured at 37°C and normalized to Gd and given in L mmol-1 s-1.

[5] = test system: freshly isolated rat hepatocytes; assay: Uptake into freshly isolated rat hepatocytes; details: rat hepatocyte uptake with OATP1B1/1B3 inhibitor Rifampicine, test item and inhibitor each 100 µM
Description: The rat hepatocytes were incubated (2.5 ·10^5 cells/well) for 2.5 to 4h in collagen coated 24-well plates (Fa. Beckton Dickinson Biocoat, cell environments, Collagen I Cellware) in Williams E-medium (Fa. Sigma W1878) in an incubator (37°C, 5% CO2 and 95% oxygen). After incubation the adherent hepatocytes were washed once with 37°C Hepes carbonate transport buffer (500 µL/well). The test items and RC1 were prepared from stock solutions (180 to 500 mM concentration) in Hepes carbonate transport buffer at pH 7.4 to reach a final concentration of 100 µmοl Gd/L. The specific uptake of the test item or RC1 into rat hepatocytes via OATP1 B1 and OATP1 B3 was challenged using a known OATP1B1/1B3 inhibitor (Rifampicine, Fa. Sigma R3501, test item and inhibitor 1:1 each 100 µM final concentration). The prepared rat hepatocyte plates were incubated with test solutions (500 µL/well) at 37°C for 10 min using a thermoshaker (Fa. Grant Bio, PHMP). Triplicates were performed for each test item. After incubating the cells were washed once with cold PBS buffer (Fa. Gibco, Dulbeccos PBS (+)). After washing the intact hepatocytes were lysed by addition of 500 µL cold 0.01 % Triton-X 100 in Millipore water for 1h. […] After 1h 500 µL of 10 nM Terbium ICP-MS standard was added in 2% nitric acid and 0.01% Triton 100 before the Gadolinium concentrations in the lysate were measured using ICP-MS (Agilent 8900, singleQuad, integr. Time 0.3 s, no gas, 5 replicates, Gd m/z 157, Tb m/z 159). As a reference standard RC1 is used in the same well plate. The hepatocyte uptake of the test compound is calculated relative to RC1 (resulting in the unit % of RC1).

## CCOc1ccc(CC2CN(CC(=O)[O-])CCN(CC(=O)[O-])CCN(CC(=O)O)CCN2CC(=O)[O-])cc1.[Gd+3] (centres unmarked) [Example 7, Gadolinium-2,2',2"-[10-(carboxymethyl)-2-(4-ethoxybenzyl)-1,4,7,10-tetraazacyclododecane-1,4,7-triyl]triacetate]
[1]
  Stability (transmetallation stability, T1 relaxation rates R1n/R10): 98%
[2]
  NOAEL: 1.50 mmol Gd/kg bw
OATP1B1
  Inhibition Rifampicine: 78 % inhibition
OATP1B3
  Inhibition Rifampicine: 95 % inhibition
[3]
  Solubility: > 403 mM
[4]; human plasma
  r1 human plasma: 6.2 L/mmol/s
[4]; water
  r1 water: 4.5 L/mmol/s
[5]
  Inhibition Rifampicine: 96 % inhibition
